These results are taken from patent US12595253B2, “Benzamides of pyrazolylamino-pyrimidinyl derivatives, and compositions and methods thereof” (LYNK PHARMACEUTICALS CO. LTD., priority 2019, dated 2026).

The target in one experiment is T1, JAK2 (Homo sapiens, UniProt O60674).
T1 construct: purchased Carna Biosciences
As to the kind of experiment: JAK2 microfluidic kinase assay (Caliper EZ Reader II, FAM labeled peptide substrate). It is filed as biochemical. How it is done:
(§1) Compounds were tested against JAK1, JAK2, JAK2V617F and TYK2. Assay Formats: JAK activity was determined in the reaction buffer 50 mM HEPES, 0.01% Brij35, 10 mM MgCl2, 2 mM DTT by a microfluidic assay. The phosphorylation of a FAM labeled peptide substrate was monitored in the Caliper EZ Reader II (Perkin Elmer). The assay condition for each batch of enzyme (Carna Biosciences) was optimized to obtain 10% conversion rate of peptide substrate. The test compounds were dissolved in DMSO to a stock concentration of 10 mM. 3-fold serially diluted compounds with top concentration of 5 μM were pre-incubated with JAK1, JAK2, JAK2V617F or TYK2 at indicated concentrations for 10 min at ambient temperature. The final DMSO concentration of assay mixture was 1%. […] The reaction was stopped by adding 50 mM EDTA. […] The percent inhibition was calculated by the following formula. % Inhibition=(Conversionmax−Conversionsample)/(Conversionmax−Conversionmin)*100 • Conversionmax means the conversion rate in the positive well without addition of compound • Conversionmin means the conversion rate in the well without addition of enzyme • Conversionsample means the conversion rate of test compounds The dose-response (percent inhibition) curve was plotted and IC50 values were determined by GraphPad software.

Another experiment concerns the target T2, JAK1 (Homo sapiens, UniProt P23458).
T2 construct: purchased Carna Biosciences
The experiment can be described thus: JAK1 microfluidic kinase assay (Caliper EZ Reader II, FAM labeled peptide substrate). To be noted: IC50 JAK1 (5 nM) (1 m MATP), JAK1 5 nM, 1 mM ATP. In kind it is biochemical. How it is done:
as §1

The mark [1] stands for this setting: IC50 JAK2 ([…]) (Km ATP), Km ATP.

Molecules are shown by their SMILES.

T1 sequence (O60674 whole entry): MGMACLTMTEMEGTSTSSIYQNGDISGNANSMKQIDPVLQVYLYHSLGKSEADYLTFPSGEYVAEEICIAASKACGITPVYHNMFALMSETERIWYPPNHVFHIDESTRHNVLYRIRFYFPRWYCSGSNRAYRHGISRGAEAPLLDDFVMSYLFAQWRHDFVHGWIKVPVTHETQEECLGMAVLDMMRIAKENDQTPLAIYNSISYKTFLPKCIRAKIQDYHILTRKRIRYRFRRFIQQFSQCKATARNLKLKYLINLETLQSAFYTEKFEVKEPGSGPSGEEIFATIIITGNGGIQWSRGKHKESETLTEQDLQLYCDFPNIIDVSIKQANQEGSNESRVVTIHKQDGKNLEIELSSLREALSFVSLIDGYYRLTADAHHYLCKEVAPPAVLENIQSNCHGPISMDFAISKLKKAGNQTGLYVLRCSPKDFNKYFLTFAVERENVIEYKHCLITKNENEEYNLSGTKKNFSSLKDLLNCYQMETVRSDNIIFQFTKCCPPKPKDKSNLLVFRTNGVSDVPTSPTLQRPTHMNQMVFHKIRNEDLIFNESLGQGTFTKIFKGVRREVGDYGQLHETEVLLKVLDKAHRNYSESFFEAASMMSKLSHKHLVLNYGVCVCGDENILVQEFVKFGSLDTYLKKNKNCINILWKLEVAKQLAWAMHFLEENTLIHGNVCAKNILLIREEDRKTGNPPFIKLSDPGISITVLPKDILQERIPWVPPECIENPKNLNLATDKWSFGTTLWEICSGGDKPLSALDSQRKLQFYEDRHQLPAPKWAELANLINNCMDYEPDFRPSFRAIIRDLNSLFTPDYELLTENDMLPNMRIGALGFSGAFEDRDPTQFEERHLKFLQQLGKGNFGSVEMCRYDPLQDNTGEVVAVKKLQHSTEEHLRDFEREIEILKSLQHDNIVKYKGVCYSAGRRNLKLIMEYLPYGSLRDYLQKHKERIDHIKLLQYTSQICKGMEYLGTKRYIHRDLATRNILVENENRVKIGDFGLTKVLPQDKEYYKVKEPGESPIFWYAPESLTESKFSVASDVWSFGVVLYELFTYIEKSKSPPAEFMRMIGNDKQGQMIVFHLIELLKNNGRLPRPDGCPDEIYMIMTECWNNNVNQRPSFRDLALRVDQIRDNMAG
T2 sequence (P23458 whole entry): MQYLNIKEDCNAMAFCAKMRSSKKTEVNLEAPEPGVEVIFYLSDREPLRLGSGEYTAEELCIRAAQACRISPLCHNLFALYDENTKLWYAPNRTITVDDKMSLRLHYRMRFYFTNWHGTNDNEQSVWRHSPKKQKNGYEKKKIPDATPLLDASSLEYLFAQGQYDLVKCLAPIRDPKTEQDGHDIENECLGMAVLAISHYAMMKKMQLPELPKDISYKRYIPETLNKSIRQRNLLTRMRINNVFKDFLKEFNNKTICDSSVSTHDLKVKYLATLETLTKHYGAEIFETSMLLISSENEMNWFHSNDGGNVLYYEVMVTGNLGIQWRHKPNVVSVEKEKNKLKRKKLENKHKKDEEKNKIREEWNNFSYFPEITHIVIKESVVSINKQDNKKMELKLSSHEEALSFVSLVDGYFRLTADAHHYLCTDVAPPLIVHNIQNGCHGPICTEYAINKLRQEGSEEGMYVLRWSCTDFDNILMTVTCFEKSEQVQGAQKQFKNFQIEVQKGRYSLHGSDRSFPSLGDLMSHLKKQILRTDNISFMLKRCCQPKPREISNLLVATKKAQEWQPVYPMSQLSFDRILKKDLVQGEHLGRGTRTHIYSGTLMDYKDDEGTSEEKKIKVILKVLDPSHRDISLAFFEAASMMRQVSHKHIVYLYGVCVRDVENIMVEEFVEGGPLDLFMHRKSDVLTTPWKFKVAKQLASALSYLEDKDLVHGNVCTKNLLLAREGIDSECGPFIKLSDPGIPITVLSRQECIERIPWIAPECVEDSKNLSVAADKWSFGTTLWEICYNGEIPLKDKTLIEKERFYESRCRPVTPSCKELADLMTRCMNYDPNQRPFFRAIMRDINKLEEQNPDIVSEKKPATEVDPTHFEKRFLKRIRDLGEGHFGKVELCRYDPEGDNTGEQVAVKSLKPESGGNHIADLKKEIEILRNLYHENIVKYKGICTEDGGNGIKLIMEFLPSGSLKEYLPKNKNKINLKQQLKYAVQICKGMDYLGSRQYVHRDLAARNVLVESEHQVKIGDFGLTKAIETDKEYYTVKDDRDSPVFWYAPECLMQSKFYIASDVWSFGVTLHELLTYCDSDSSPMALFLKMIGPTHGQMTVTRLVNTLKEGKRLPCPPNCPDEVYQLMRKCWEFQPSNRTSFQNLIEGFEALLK

What is called IC50 is the midpoint of a concentration-inhibition curve. The low end stands for inhibition by little substance, the high end for a need for much substance. As to `Cc1cnc(Nc2cnn(CC(F)(F)F)c2)nc1-c1ccc(C(=O)N2CC(C#N)C2)cc1` [Example 5, 1-(4-(5-Methyl-2-((1-(2,2,2-trifluoroethyl)-1H-pyrazol-4-yl)amino)pyrimidin-4-yl)benzoyl)azetidine-3-carbonitrile], the IC50 against JAK2 (setting [1]) came to 16.6 nM.
The same measure, in the same setting: with `Cc1cnc(Nc2cnn(C)c2)nc1-c1ccc(C(=O)NCCCO)cc1` [Example 7, N-(3-Hydroxypropyl)-4-(5-methyl-2-((1-methyl-1H-pyrazol-4-yl)amino)pyrimidin-4-yl)benzamide] the figure was 10.1 nM; with `Cc1cnc(Nc2cnn(C)c2)nc1-c1ccc(C(=O)NCCO)cc1` [Example 8, N-(2-Hydroxyethyl)-4-(5-methyl-2-((1-methyl-1H-pyrazol-4-yl)amino)pyrimidin-4-yl)benzamide], 14 nM; with `Cc1cnc(Nc2cnn(C)c2)nc1-c1ccc(C(=O)NC2CC(O)C2)cc1` (stereo not drawn) [Example 9, N-(3-Hydroxycyclobutyl)-4-(5-methyl-2-((1-methyl-1H-pyrazol-4-yl)amino)pyrimidin-4-yl)benzamide], 17.2 nM.
`Cc1cnc(Nc2cnn(C)c2)nc1-c1ccc(C(=O)NCC(O)CO)cc1` (stereo not drawn) [Example 14, N-(2,3-Dihydroxypropyl)-4-(5-methyl-2-((1-methyl-1H-pyrazol-4-yl)amino)pyrimidin-4-yl)benzamide]: at JAK2 (setting [1]), the IC50 amounted to 14.3 nM. This IC50 and that of the compound before are within 1.5-fold of each other.
The same measure, in the same setting: under `Cc1cnc(Nc2cnn(C)c2)nc1-c1ccc(C(=O)N2CC(C#N)C2)cc1` [Example 15, 1-(4-(5-Methyl-2-((1-methyl-1H-pyrazol-4-yl)amino)pyrimidin-4-yl)benzoyl)azetidine-3-carbonitrile] stands 8.6 nM; under `Cc1cnc(Nc2cnn(C)c2)nc1-c1ccc(C(=O)NC(C)C#N)cc1` (stereo not drawn) [Example 17, N-(1-Cyanoethyl)-4-(5-methyl-2-((1-methyl-1H-pyrazol-4-yl)amino)pyrimidin-4-yl)benzamide], 5.15 nM; under `Cc1cnc(Nc2cnn(C3CCN(CC#N)CC3)c2)nc1-c1ccc(C(=O)N2CC(C#N)C2)cc1` [Example 23, 1-(4-(2-((1-(1-(Cyanomethyl)piperidin-4-yl)-1H-pyrazol-4-yl)amino)-5-methylpyrimidin-4-yl)benzoyl)azetidine-3-carbonitrile], 2.9 nM.
Still for that read-out and setting: with `Cc1cnc(Nc2cnn(C3CC3)c2)nc1-c1ccc(C(=O)N2CC(C#N)C2)cc1` [Example 29, 1-(4-(2-((1-Cyclopropyl-1H-pyrazol-4-yl)amino)-5-methylpyrimidin-4-yl)benzoyl)azetidine-3-carbonitrile] the figure was 5.49 nM.
In the case of `Cc1cnc(Nc2cnn(CC#N)c2)nc1-c1ccc(C(=O)N2CC(C#N)C2)cc1` [Example 30, 1-(4-(2-((1-(Cyanomethyl)-1H-pyrazol-4-yl)amino)-5-methylpyrimidin-4-yl)benzoyl)azetidine-3-carbonitrile], at JAK2 (setting [1]), the IC50 worked out at 11.5 nM.
Still for that read-out and setting: under `COc1cc(-c2nc(Nc3cnn(C)c3)ncc2C)ccc1C(=O)NCC#N` [Example 33, N-(cyanomethyl)-2-methoxy-4-(5-methyl-2-((1-methyl-1H-pyrazol-4-yl)amino)pyrimidin-4-yl)benzamide] stands 41 nM.
For `Cn1cc(Nc2nccc(-c3ccc(C(=O)NCC#N)cc3F)n2)cn1` [Example 35, N-(Cyanomethyl)-3-fluoro-4-(2-((1-methyl-1H-pyrazol-4-yl)amino)pyrimidin-4-yl)benzamide], at JAK2 (setting [1]), inhibition was half-maximal at 34.9 nM (IC50).
For the compound `Cn1cc(Nc2ncc(F)c(-c3ccc(C(=O)NCC#N)c(F)c3)n2)cn1` [Example 36, N-(Cyanomethyl)-2-fluoro-4-(5-fluoro-2-((1-methyl-1H-pyrazol-4-yl)amino)pyrimidin-4-yl)benzamide], the IC50 against JAK2 (setting [1]) came to 22 nM.
Regarding `N#CCNC(=O)c1ccc(-c2nc(Nc3cnn(CC(N)=O)c3)ncc2Cl)cc1` [Example 42, 4-(2-((1-(2-amino-2-oxoethyl)-1H-pyrazol-4-yl)amino)-5-chloropyrimidin-4-yl)-N-(cyanomethyl)benzamide], half-maximal inhibition on JAK1 (IC50) was put at 90.8 nM. This counts as double-digit nanomolar.
With `Cc1cnc(Nc2cnn(C)c2)nc1-c1ccc(C(=O)NCC#N)c(F)c1` [Example 100, N-(Cyanomethyl)-2-fluoro-4-(5-methyl-2-((1-methyl-1H-pyrazol-4-yl)amino)pyrimidin-4-yl)benzamide], it took 4.34 nM to reach half-maximal inhibition against JAK2 (setting [1]) (IC50). In other words, the single-digit nanomolar range.
`CC(=O)N1CCC(n2cc(Nc3ncc(C)c(-c4ccc(C(=O)N5CC(C#N)C5)cc4)n3)cn2)CC1` [Example 102, 1-(4-(2-((1-(1-Acetylpiperidin-4-yl)-1H-pyrazol-4-yl)amino)-5-methylpyrimidin-4-yl)benzoyl)azetidine-3-carbonitrile] had an IC50 against JAK2 (setting [1]) of 2.6 nM.
With `Cc1cnc(Nc2cnn(C)c2)nc1-c1ccc(C(=O)N2CC(C#N)C2)c(F)c1` [Example 103, 1-(2-Fluoro-4-(5-methyl-2-((1-methyl-1H-pyrazol-4-yl)amino)pyrimidin-4-yl)benzoyl)azetidine-3-carbonitrile], at JAK2 (setting [1]), half-maximal inhibition (IC50) required 12 nM.
Still for that read-out and setting: under `Cc1cnc(Nc2cnn(C)c2)nc1-c1ccc(C(=O)NCCN(C)C)cc1` [Example 105, N-(2-(Dimethylamino)ethyl)-4-(5-methyl-2-((1-methyl-1H-pyrazol-4-yl)amino)pyrimidin-4-yl)benzamide] stands 55.9 nM.
`N#CCNC(=O)c1ccc(-c2nc(Nc3cnn(C4CC4)c3)ncc2C(F)F)cc1F` [Example 109, N-(cyanomethyl)-4-(2-((1-cyclopropyl-1H-pyrazol-4-yl)amino)-5-(difluoromethyl)pyrimidin-4-yl)-2-fluorobenzamide] had an IC50 against JAK2 (IC50 JAK2 ([…]) (1 mM ATP), 1 mM ATP) of 457 nM. This counts as sub-micromolar.
Consider `N#CCNC(=O)c1ccc(-c2nc(Nc3cnn(C4CC4)c3)ncc2F)cc1F` [Example 116, N-(Cyanomethyl)-4-(2-((1-cyclopropyl-1H-pyrazol-4-yl)amino)-5-fluoropyrimidin-4-yl)-2-fluorobenzamide], for which half-maximal inhibition against JAK2 (setting [1]) (IC50) was put at 10.6 nM.
`C[C@@H](C#N)NC(=O)c1ccc(-c2nc(Nc3cnn(C4CC4)c3)ncc2F)cc1F` [Example 117, (S)—N-(1-cyanoethyl)-4-(2-((1-cyclopropyl-1H-pyrazol-4-yl)amino)-5-fluoropyrimidin-4-yl)-2-fluorobenzamide] came in with a 50% inhibitory concentration (IC50) against JAK2 (setting [1]) of 19 nM. This IC50 is about 1.8-fold higher than that of the compound before.
Still for that read-out and setting: with `Cc1cnc(Nc2cnn(C3CCN(C(=O)C4(C)COC4)CC3)c2)nc1-c1ccc(C(=O)NCC#N)cc1` [Example 118, N-(Cyanomethyl)-4-(5-methyl-2-((1-(1-(3-methyloxetane-3-carbonyl)piperidin-4-yl)-1H-pyrazol-4-yl)amino)pyrimidin-4-yl)benzamide] the figure was less than 0.25 nM; with `N#CC1CN(C(=O)c2ccc(-c3nc(Nc4cnn(C5CC5)c4)ncc3F)cc2F)C1` [Example 127, 1-(4-(2-((1-Cyclopropyl-1H-pyrazol-4-yl)amino)-5-fluoropyrimidin-4-yl)-2-fluorobenzoyl)azetidine-3-carbonitrile], 53.5 nM.
On the same count and under the same terms, with `Cc1cnc(Nc2cnn(C3CC3)c2)nc1-c1ccc(C(=O)NCC#N)c(F)c1` [Example 128, N-(cyanomethyl)-4-(2-((1-cyclopropyl-1H-pyrazol-4-yl)amino)-5-methylpyrimidin-4-yl)-2-fluorobenzamide] the figure was 1.5 nM; with `N#CCNC(=O)c1ccc(-c2nc(Nc3cnn(CC(F)(F)F)c3)ncc2F)cc1F` [Example 130, N-(cyanomethyl)-2-fluoro-4-(5-fluoro-2-((1-(2,2,2-trifluoroethyl)-1H-pyrazol-4-yl)amino)pyrimidin-4-yl)benzamide], 58.1 nM.
As for `N#CCNC(=O)c1ccc(-c2nc(Nc3cnn(CC(F)F)c3)ncc2F)cc1F` [Example 131, N-(cyanomethyl)-4-(2-((1-(2,2-difluoroethyl)-1H-pyrazol-4-yl)amino)-5-fluoropyrimidin-4-yl)-2-fluorobenzamide], the concentration for half-maximal inhibition (IC50) on JAK2 (setting [1]) was 26.2 nM.
Still for that read-out and setting: with `N#CCNC(=O)c1ccc(-c2nc(Nc3cnn(C4CC4)c3)ncc2Cl)cc1F` [Example 135, 4-(5-Chloro-2-((1-cyclopropyl-1H-pyrazol-4-yl)amino)pyrimidin-4-yl)-N-(cyanomethyl)-2-fluorobenzamide] the figure was 2.8 nM.
Still for that read-out and setting: with `N#CC1CN(C(=O)c2ccc(-c3nc(Nc4cnn(C5CC5)c4)ncc3Cl)cc2F)C1` [Example 136, 1-(4-(5-Chloro-2-((1-cyclopropyl-1H-pyrazol-4-yl)amino)pyrimidin-4-yl)-2-fluorobenzoyl)azetidine-3-carbonitrile] the figure was 9.2 nM.
Consider `N#CC1CN(C(=O)c2ccc(-c3ccnc(Nc4cnn(C5CC5)c4)n3)cc2F)C1` [Example 141, 1-(4-(2-((1-Cyclopropyl-1H-pyrazol-4-yl)amino)pyrimidin-4-yl)-2-fluorobenzoyl)azetidine-3-carbonitrile], for which, on JAK2 (setting [1]), the IC50 was 40.4 nM.
The same measure, in the same setting: under `C[C@@H](C#N)NC(=O)c1ccc(-c2ccnc(Nc3cnn(C4CC4)c3)n2)cc1F` [Example 142, (S)—N-(1-Cyanoethyl)-4-(2-((1-cyclopropyl-1H-pyrazol-4-yl)amino)pyrimidin-4-yl)-2-fluorobenzamide] stands 12.6 nM.
